Earlier results, collected in US11819508B2 (priority 2020, dated 2023).
Where two headings read alike, the source gives them in different places.

B1: IFN β-1b: cytokine in the interferon family, subcutaneous (protein, UniProt P01574 22-187, looked up, variant C17S)
Interferon beta: MSYNLLGFLQRSSNFQSQKLLWQLNGRLEYCLKDRMNFDIPEEIKQLQQFQKEDAALTIYEMLQNIFAIFRQDSSSTGWNETIVENLLANVYHQINHLKTVLEEKLEKEDFTRGKLMSSLHLKRYYGRILHYLKAKEYSHCAWTIVRVEILRNFYFINRLTGYLRN
modifications: lacks N-terminal Met1, non-glycosylated
notes: cytokine in the interferon family, subcutaneous

Tests used:
[1] = in vivo
Covid-19 = settings: subcutaneous; subjects hospitalized with Covid-19

Row | Molecule | half-life [1] | solubility (in aqueous solutions) | solubility (in water or saline solutions) | solubility (in water, 0.1 N HCl or NaOH, methanol, and ethanol) | clinical improvement as assessed by NEWS 2 and SOFA score and shortened hospital stay (Covid-19)
1 | 2-[[(hexadecyloxy)hydroxyphosphenyl]oxy]-N,N,N-trimethylethylammonium inner salt [Miltefosine] | long half-life | freely soluble | readily soluble | freely soluble | –
2 | B1 | – | – | – | – | clinical improvement
